Results as given in ChEMBL document CHEMBL1240387, “In vitro activity of CEM-101, a new fluoroketolide antibiotic, against Chlamydia trachomatis and Chlamydia (Chlamydophila) pneumoniae” (2010).
Converted amounts (≈) assume the structure as drawn.

What was measured:
Chlamydia pneumoniae [1] = experiment: Antimicrobial activity against Chlamydophila pneumoniae infected in human Hep2 cells after 72 hrs by twofold serial dilution method; assay type: functional, HEp-2
Chlamydia trachomatis [2] = experiment: Antimicrobial activity against Chlamydia trachomatis after 72 hrs by twofold serial dilution method; assay type: functional
Chlamydia trachomatis [3] = experiment: Antimicrobial activity against Chlamydia trachomatis after 72 hrs by fluorescence assay; assay type: functional
Chlamydia pneumoniae [4] = experiment: Antimicrobial activity against Chlamydophila pneumoniae infected in human Hep2 cells after 72 hrs by fluorescence assay; assay type: functional, HEp-2
Ureaplasma urealyticum = experiment: Antimicrobial activity against Ureaplasma urealyticum by microtiter plate reader assay; assay type: functional
Neisseria gonorrhoeae = experiment: Antimicrobial activity against Neisseria gonorrhoeae by microtiter plate reader assay; assay type: functional
Mycoplasma genitalium = experiment: Antimicrobial activity against Mycoplasma genitalium by microtiter plate reader assay; assay type: functional; conditions: Mycoplasmoides genitalium
Metamycoplasma hominis = experiment: Antimicrobial activity against Mycoplasma hominis by microtiter plate reader assay; assay type: functional
[5] = system: Mycoplasmoides pneumoniae; experiment: Antimicrobial activity against Mycoplasma pneumoniae by microtiter plate reader assay; assay type: functional

| Structure (SMILES) | MIC50 (Chlamydia pneumoniae [1]) | MIC90 (Chlamydia pneumoniae [1]) | MIC50 (Chlamydia trachomatis [2]) | MIC90 (Chlamydia trachomatis [2]) | MIC (Ureaplasma urealyticum) | MIC (Neisseria gonorrhoeae) | MIC (Mycoplasma genitalium) | MIC (Metamycoplasma hominis) | MIC [5] | MBC90 (Chlamydia trachomatis [3]) | MBC90 (Chlamydia pneumoniae [4]) |
| --- | --- | --- | --- | --- | --- | --- | --- | --- | --- | --- | --- |
| C[C@H]1c2cccc(O)c2C(=O)C2=C(O)[C@]3(O)C(=O)C(C(N)=O)=C(O)[C@@H](N(C)C)[C@@H]3[C@@H](O)[C@@H]21.O [DOXYCYCLINE] | 60 ng/mL | 60 ng/mL | 60 ng/mL | 60 ng/mL |  |  |  |  |  | 60 ng/mL | 60 ng/mL |
| CC[C@H]1OC(=O)[C@@](C)(F)C(=O)[C@H](C)[C@@H](O[C@@H]2O[C@H](C)C[C@H](N(C)C)[C@H]2O)[C@](C)(OC)C[C@@H](C)C(=O)[C@H](C)[C@H]2N(CCCCn3cc(-c4cccc(N)c4)nn3)C(=O)O[C@]12C [SOLITHROMYCIN] | 250 ng/mL (≈ 296 nM) | 250 ng/mL (≈ 296 nM) | 250 ng/mL (≈ 296 nM) | 250 ng/mL (≈ 296 nM) | 0.03 ng/mL (≈ 0.0355 nM) | ≤ 250 ng/mL | ≤ 0.03 ng/mL | ≤ 0.03 ng/mL | ≤ 500 ng/mL | 250 ng/mL (≈ 296 nM) | 250 ng/mL (≈ 296 nM) |
| CC[C@H]1OC(=O)[C@H](C)C(=O)[C@H](C)[C@@H](O[C@@H]2O[C@H](C)C[C@H](N(C)C)[C@H]2O)[C@](C)(OC)C[C@@H](C)C(=O)[C@H](C)[C@H]2N(CCCCn3cnc(-c4cccnc4)c3)C(=O)O[C@]12C [TELITHROMYCIN] | 60 ng/mL (≈ 73.9 nM) | 60 ng/mL (≈ 73.9 nM) | 60 ng/mL (≈ 73.9 nM) | 60 ng/mL (≈ 73.9 nM) |  |  |  |  |  | 60 ng/mL (≈ 73.9 nM) | 60 ng/mL (≈ 73.9 nM) |

Second part, led by results:

| MIC50 (Chlamydia pneumoniae [1]) | MIC90 (Chlamydia pneumoniae [1]) | MIC50 (Chlamydia trachomatis [2]) | MIC90 (Chlamydia trachomatis [2]) | MIC (Ureaplasma urealyticum) | MIC (Neisseria gonorrhoeae) | MIC (Mycoplasma genitalium) | MIC (Metamycoplasma hominis) | MIC [5] | Structure (SMILES) | MBC90 (Chlamydia trachomatis [3]) | MBC90 (Chlamydia pneumoniae [4]) |
| --- | --- | --- | --- | --- | --- | --- | --- | --- | --- | --- | --- |
| 125 ng/mL (≈ 167 nM) | 125 ng/mL (≈ 167 nM) | 125 ng/mL (≈ 167 nM) | 125 ng/mL (≈ 167 nM) |  |  |  |  |  | CC[C@H]1OC(=O)[C@H](C)[C@@H](O[C@H]2C[C@@](C)(OC)[C@@H](O)[C@H](C)O2)[C@H](C)[C@@H](O[C@@H]2O[C@H](C)C[C@H](N(C)C)[C@H]2O)[C@](C)(O)C[C@@H](C)CN(C)[C@H](C)[C@@H](O)[C@]1(C)O [AZITHROMYCIN] |  |  |
| 60 ng/mL (≈ 80.2 nM) | 60 ng/mL (≈ 80.2 nM) | 60 ng/mL (≈ 80.2 nM) | 60 ng/mL (≈ 80.2 nM) |  |  |  |  |  | CC[C@H]1OC(=O)[C@H](C)[C@@H](O[C@H]2C[C@@](C)(OC)[C@@H](O)[C@H](C)O2)[C@H](C)[C@@H](O[C@@H]2O[C@H](C)C[C@H](N(C)C)[C@H]2O)[C@](C)(OC)C[C@@H](C)C(=O)[C@H](C)[C@@H](O)[C@]1(C)O [CLARITHROMYCIN] | 60 ng/mL (≈ 80.2 nM) | 60 ng/mL (≈ 80.2 nM) |
